Columns and labels:
Type in all cases: cell-based
[1] = molecular target: T1, GLP-1R (Homo sapiens, UniProt P43220); experiment: In vitro agonistic activity on GLP-1R (cAMP assay); conditions: HEK293 cell line; for Agonistic activity on GLP-1R Max Activity (%): Max Dose 20 nM
T1 construct: host or cells: HEK293
Description: (§1) The cell lines were constructed by Shanghai WuXi AppTec.
(§2) The compounds to be assayed were serially diluted 4-fold with Bravo to obtain 10 concentrations, with a starting concentration of 30 μM.
(§3) 1) 100 nL of the compound was transferred to an OptiPlate-384 plate using Echo.
(§4) 2) The OptiPlate-384 plate was centrifuged at 1000 rpm for 5 seconds.
(§5) 1) A GLP-1R/GIPR/GCGR cell cryopreservation tube was quickly placed in warm water at 37° C. to thaw.
(§6) 2) The cell suspension was transferred to a 15 mL centrifuge tube, and gently washed with 10 ml of HBSS.
(§7) 3) The centrifuge tube was centrifuged at 1000 rpm at room temperature for 1 minute.
(§8) 4) The supernatant was discarded.
(§9) 5) The cells at the bottom were gently dispersed and gently washed with 10 ml of HBSS. The cells were centrifuged and sedimented, and finally resuspended with the assay buffer.
(§10) 6) Vi-cell was used to measure the cell density and viability.
(§11) 7) The concentration of GLP-1R/GIPR/GCGR cells was diluted to 2.0*105/mL with the assay buffer.
(§12) 8) […] of the diluted cell suspension was transferred to the OptiPlate-384 plate.
(§13) 9) The plate was incubated at room temperature for 30 minutes.
(§14) 1) 10 μL of 800 nM gradient diluted cAMP standard was added into an empty well of the OptiPlate-384 plate.
(§15) 2) 10 μL of cAMP assay reagent was added.
(§16) 3) The OptiPlate-384 plate was covered with a TopSeal-A film and incubated at room temperature for 60 minutes.
(§17) The TopSeal-A was peeled off and the plate was read on the EnVision.

[2] = molecular target: T2, GCGR (Homo sapiens, UniProt P47871); experiment: In vitro agonistic activity on GCGR (cAMP assay); conditions: HEK293 cell line; for Agonistic activity on GCGR Max Activity (%): Max Dose 100 nM
T2 construct: host or cells: HEK293
T2 sequence (P47871 26-477, species assumed): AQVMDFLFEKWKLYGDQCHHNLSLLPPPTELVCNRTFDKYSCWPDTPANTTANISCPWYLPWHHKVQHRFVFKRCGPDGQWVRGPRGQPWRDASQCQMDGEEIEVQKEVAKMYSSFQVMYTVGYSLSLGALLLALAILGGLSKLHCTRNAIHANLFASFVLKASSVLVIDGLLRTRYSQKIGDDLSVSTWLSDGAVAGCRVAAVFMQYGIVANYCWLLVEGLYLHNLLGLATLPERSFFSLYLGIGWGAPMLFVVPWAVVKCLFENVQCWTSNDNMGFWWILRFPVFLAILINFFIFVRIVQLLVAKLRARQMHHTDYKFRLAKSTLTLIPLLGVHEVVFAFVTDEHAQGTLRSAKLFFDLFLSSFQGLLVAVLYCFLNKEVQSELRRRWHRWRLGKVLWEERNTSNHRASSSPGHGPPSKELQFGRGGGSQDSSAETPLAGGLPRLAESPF
Description: as §1, §2, §3, §4, §5, §6, §7, §8, §9, §10, §11, §12, §13, §14, §15, §16, §17

[3] = molecular target: T3, GIPR (Homo sapiens, UniProt P48546); experiment: In vitro agonistic activity on GIPR (cAMP assay); conditions: CHO cell line; for Agonistic activity on GIPR Max Activity (%): Max Dose 20 nM
T3 construct: host or cells: CHO
T3 sequence (P48546 22-466): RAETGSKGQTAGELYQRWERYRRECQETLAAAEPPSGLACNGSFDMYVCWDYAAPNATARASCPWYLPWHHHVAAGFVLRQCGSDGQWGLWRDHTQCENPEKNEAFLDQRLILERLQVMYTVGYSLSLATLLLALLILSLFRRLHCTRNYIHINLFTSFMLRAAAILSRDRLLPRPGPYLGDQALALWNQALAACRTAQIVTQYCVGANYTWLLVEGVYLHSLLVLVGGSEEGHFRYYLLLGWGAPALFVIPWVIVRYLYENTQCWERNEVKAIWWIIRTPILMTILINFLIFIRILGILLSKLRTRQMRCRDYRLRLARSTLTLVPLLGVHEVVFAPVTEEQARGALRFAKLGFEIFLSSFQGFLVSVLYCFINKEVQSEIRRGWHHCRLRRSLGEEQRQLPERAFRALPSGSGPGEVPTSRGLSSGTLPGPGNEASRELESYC
Description: as §1, §2, §3, §4, §5, §6, §7, §8, §9, §10, §11, §12, §13, §14, §15, §16, §17

T1 sequence (P43220 24-463, species assumed): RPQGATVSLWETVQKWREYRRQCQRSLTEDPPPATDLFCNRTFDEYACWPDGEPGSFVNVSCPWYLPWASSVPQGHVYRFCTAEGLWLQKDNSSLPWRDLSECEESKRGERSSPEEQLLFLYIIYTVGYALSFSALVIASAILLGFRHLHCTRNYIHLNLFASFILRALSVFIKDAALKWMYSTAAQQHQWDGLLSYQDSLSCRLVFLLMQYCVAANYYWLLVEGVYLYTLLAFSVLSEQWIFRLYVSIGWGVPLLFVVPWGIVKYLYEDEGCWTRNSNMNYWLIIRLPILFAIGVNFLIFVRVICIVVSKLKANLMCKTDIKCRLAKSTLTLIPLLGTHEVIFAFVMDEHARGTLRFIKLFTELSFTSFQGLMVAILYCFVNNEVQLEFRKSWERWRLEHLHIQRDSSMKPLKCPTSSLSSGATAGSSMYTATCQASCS

Row | EC50 [1] | Agonistic activity on GLP-1R Max Activity (%) [1] | EC50 [2] | Agonistic activity on GCGR Max Activity (%) [2] | EC50 [3] | Agonistic activity on GIPR Max Activity (%) [3] | Compound
1 | 0.0582 nM | 111.18% | 0.624 nM | 86.01% | > 20 nM | 1.57% | CC(C)C[C@H](NC(=O)[C@H](CC(C)C)NC(=O)[C@H](Cc1c[nH]c2ccccc12)NC(=O)[C@H](CCC(=O)O)NC(=O)[C@@H](NC(=O)[C@H](Cc1ccccc1)NC(=O)[C@@H]1CCCCNC(=O)CN(C(=O)COCCOCCNC(=O)COCCOCCNC(=O)CC[C@H](NC(=O)CCCCCCCCCCCCCCCCCCC(=O)O)C(=O)O)CC(=O)NCCCC[C@H](NC(=O)[C@H](CCCCN)NC(=O)[C@H](CCC(=O)O)NC(=O)[C@H](CC(=O)O)NC(=O)[C@H](CC(C)C)NC(=O)[C@H](Cc2ccc(O)cc2)NC(=O)[C@H](CCCCN)NC(=O)[C@H](CO)NC(=O)[C@H](Cc2ccc(O)cc2)NC(=O)[C@H](CC(=O)O)NC(=O)[C@H](CO)NC(=O)[C@@H](NC(=O)[C@H](Cc2ccccc2)NC(=O)[C@@H](NC(=O)CNC(=O)[C@H](CCC(N)=O)NC(=O)C(C)(C)NC(=O)[C@@H](N)Cc2c[nH]cn2)[C@@H](C)O)[C@@H](C)O)C(=O)N[C@@H](C)C(=O)N[C@@H](CCCCN)C(=O)N1)C(C)C)C(=O)N[C@@H](CCC(=O)O)C(=O)NCC(=O)NCC(=O)N1CCC[C@H]1C(=O)N[C@@H](CO)C(=O)N[C@@H](CO)C(=O)NCC(N)=O [WX003]
2 | 0.0169 nM | 106.52% | 0.195 nM | 144.14% | > 20 nM | 4.06% | CC(C)C[C@H](NC(=O)[C@H](CC(C)C)NC(=O)[C@H](Cc1c[nH]c2ccccc12)NC(=O)[C@H](CCC(=O)O)NC(=O)[C@@H](NC(=O)[C@H](Cc1ccccc1)NC(=O)[C@@H]1CCCCNC(=O)CN(C(=O)COCCOCCNC(=O)COCCOCCNC(=O)CC[C@H](NC(=O)CCCCCCCCCCCCCCCCCCC(=O)O)C(=O)O)CC(=O)NCCCC[C@H](NC(=O)[C@H](CCC(=O)O)NC(=O)[C@H](CC(=O)O)NC(=O)[C@H](CC(C)C)NC(=O)[C@H](Cc2ccc(O)cc2)NC(=O)[C@H](CCCCN)NC(=O)[C@H](CO)NC(=O)[C@H](Cc2ccc(O)cc2)NC(=O)[C@H](CC(=O)O)NC(=O)[C@H](CO)NC(=O)[C@@H](NC(=O)[C@H](Cc2ccccc2)NC(=O)[C@@H](NC(=O)CNC(=O)[C@H](CCC(N)=O)NC(=O)C(C)(C)NC(=O)[C@@H](N)Cc2c[nH]cn2)[C@@H](C)O)[C@@H](C)O)C(=O)N[C@@H](CCCCN)C(=O)N[C@@H](C)C(=O)N[C@@H](CCCCN)C(=O)N1)C(C)C)C(=O)N[C@@H](CCC(=O)O)C(=O)NCC(=O)NCC(=O)N1CCC[C@H]1C(=O)N[C@@H](CO)C(=O)N[C@@H](CO)C(=O)NCC(N)=O [WX002]
3 | 0.112 nM | 104.24% | 2.99 nM | 140.57% | > 20 nM | 1.42% | CC(C)C[C@@H]1NC(=O)[C@H](CC(C)C)NC(=O)[C@H](Cc2c[nH]c3ccccc23)NC(=O)[C@@H](NC(=O)[C@@H](NC(=O)[C@H](Cc2ccccc2)NC(=O)[C@H](CCC(=O)O)NC(=O)[C@H](CCCCN)NC(=O)[C@H](C)NC(=O)[C@H](CCCCN)NC(=O)[C@H](CCCCN)NC(=O)[C@H](CCC(=O)O)NC(=O)[C@H](CC(=O)O)NC(=O)[C@H](CC(C)C)NC(=O)[C@H](Cc2ccc(O)cc2)NC(=O)[C@H](CCCCN)NC(=O)[C@H](CO)NC(=O)[C@H](Cc2ccc(O)cc2)NC(=O)[C@H](CC(=O)O)NC(=O)[C@H](CO)NC(=O)[C@@H](NC(=O)[C@H](Cc2ccccc2)NC(=O)[C@@H](NC(=O)CNC(=O)[C@H](CCC(N)=O)NC(=O)C(C)(C)NC(=O)[C@@H](N)Cc2c[nH]cn2)[C@@H](C)O)[C@@H](C)O)C(C)C)CCCCNC(=O)CN(C(=O)COCCOCCNC(=O)COCCOCCNC(=O)CC[C@H](NC(=O)CCCCCCCCCCCCCCCCCCC(=O)O)C(=O)O)CC(=O)NCCCC[C@@H](C(=O)NCC(=O)NCC(=O)N2CCC[C@H]2C(=O)N[C@@H](CO)C(=O)N[C@@H](CO)C(=O)NCC(N)=O)NC1=O [WX005]
